Assay results from patent publication US7531195B2, “Schisandrin B preparation” (priority 2005, dated 2009).

Experiments:
H9c2 cells [1] = test: Cellular GSH level in H9c2 cells, time course, with or without xanthine/xanthine oxidase (X/XO) challenge; type: cell-based, rat; settings: 6.25 μM
Protocol: (§1) H9c2 cells, a permanent cell line derived from cardiac myoblasts of rat embryo, have early been characterized as a suitable model of myocardial cells [Hescheler et al. 1991]. H9c2 cells were cultured as monolayers in Dulbecco's modified Eagle's medium (GIBCO BRL) supplemented with 10% (v/v) fetal bovine serum. The medium contained glucose (4.5 g/L) and glutamine (4.5 mM), supplemented with NaHCO3 (17 mM), penicillin (100 IU/ml), and streptomycin (100 μg/ml). Cells were grown under an atmosphere of 5% CO2 in air at 37° C. The medium was replaced by fresh medium every 2 or 3 days. A stock of cells was grown in a 75 cm culture flask and split before confluence at a subcultivation ratio of 1:10. Cells used for experiments were seeded at a density of 3.75×10^4 cells/well on a 12-well culture plate, and the cells were grown for 24 h to about 80% confluence prior to drug treatment.
(§2) Cultured H9c2 cells were treated with (−) Schisandrin B, (+) Schisandrin B or (±) Schisandrin B (dissolved in DMSO) at 6.25 μM (0.2% DMSO final concentration) for increasing periods of time. Control cells were given the vehicle (i.e. DMSO) only. Immediately following the drug or vehicle pretreatment, the cells were challenged with a mixture of xanthine (X) (0.1 mM) and xanthine oxidase (XO) (0.4 U/ml) for 4 h. The control cells were treated with the medium only. After the X/XO challenge, the medium was taken for the measurement of LDH activity, a biochemical index of cellular injury.
(§3) The cells were washed twice with 0.5 ml cold phosphate-buffered saline (PBS), An aliquot (200 μl) of 3% sulfonsalicyclic acid was then added, and the mixture was incubate at 4° C. for 10 min. After centrifuging at 300 g for 15 min at 4° C., the supernatant was used for GSH measurement by an enzymatic method of Griffith (1980).

H9c2 cells [2] = test: Xanthine/xanthine oxidase-induced cytotoxicity (LDH leakage) in H9c2 cells; type: cell-based, rat; settings: X/XO challenge, 6.25 μM
Protocol: as §1, §2

H9c2 cells [3] = test: Menadione-induced toxicity (LDH) in H9c2 cells; type: cell-based, rat
Protocol: as §1
(§4) Cultured H9c2 cells were treated with (−) Schisandrin B, (+) Schisandrin B or (±) Schisandrin B (dissolved in DMSO) at 6.25 μM (0.2% DMSO final concentration) for 16 h. Control cells were given the vehicle (i.e. DMSO) only. Immediately following the drug or vehicle pretreatment, the cells were challenged with menadione (dissolved in ethanol) at 12.5 μM (0.2% ethanol final concentration) for 4 h. The control cells were treated with the medium containing 0.2% ethanol only. After the menadione challenge, the medium was taken for the measurement of LDH activity, an biochemical index of cell injury.

H9c2 cells [4] = test: Cellular GSH level in H9c2 cells with or without menadione challenge; type: cell-based, rat
Protocol: as §1, §4, §3

Hsp25 = Hsp25 expression in H9c2 cells (Western blot); type: cell-based, rat; settings: 6.25 μM
Protocol: as §1
(§5) Cultured H9c2 cells were treated with (−) Schisandrin B, (+) Schisandrin B or (±) Schisandrin B (dissolved in DMSO) at 6.25 μM (0.2% DMSO final concentration) for increasing periods of time. Control cells were given the vehicle (i.e. DMSO) only.
(§6) Immediately following the drug treatment, the cells were washed twice with 0.5 ml cold PBS and treated with 100 μl lysis buffer containing 20 mM Tris HCl, 3 mM EGTA, 1% Triton X-100, 10% glycerol and 2 mM dithiothreitol, pH 7.5, with freshly added protease inhibitors (1 mM phenylmethylsulfonyl fluoride, 0.1 mM benzamide, 5 μg/ml leupeptin, 5 μg aproptinin and 5 μg/ml pepstain A). The mixture was incubated at 4° C. for 15 min with constant shaking. Then the cells were scraped off from the plate, and the extract was transferred to a microcentrifuge tube for centrifugation at 2,400 g for 3 min at 4° C. The resultant supernatant was used for Hsp analysis. Hsp25 and Hsp70 levels was estimated by Western blot analysis using specific antibodies (anti-Hsp25, catalog #SPA-801; anti-Hsp70, catalog #SPA-812) from StressGen (Vancouver, BC, Canada) following SDS-PAGE analysis cell lysates, using a separating gel of 10% acrylamide as described in Ip et. al. [2001]. Hsp25/27 and Hsp70 (human recombinant proteins from StressGen) and actin (bovine muscle from Sigma) were used as markers for reference. […] All immuno-blots were analyzed by densitometry, and the amounts (arbitrary units) of Hsp were normalized with reference to actin levels (arbitrary units) in the sample.

Hsp70 = Hsp70 expression in H9c2 cells (Western blot); type: cell-based, rat; settings: 6.25 μM
Protocol: as §1, §5, §6

H9c2 cells [5] = test: Cytotoxicity test in H9c2 cells (trypan blue, LDH leakage, WST); type: cell-based; settings: 100 μM; 24 h
Protocol: as §1
Cultured H9c2 cells were treated with (−) Schisandrin B or (+) Schisandrin B (dissolved in DMSO) at 6.25 μM (0.2% DMSO final concentration) at increasing concentrations or at increasing concentrations for 24 h. Control cells were given the vehicle (i.e. DMSO) only.
Cell viability was evaluated by trypan blue staining (dead cells) and LDH leakage as well as WST staining (viable cells).

[6] = NON-X/XO, 0 h post-dosing (unpretreated control)
[7] = X/XO challenge, 0 h post-dosing (unpretreated control)
[8] = X/XO challenge, 4 h post-dosing
[9] = X/XO challenge, 8 h post-dosing
[10] = X/XO challenge, 16 h post-dosing
[11] = X/XO challenge, 24 h post-dosing
[12] = X/XO challenge, 48 h post-dosing
[13] = 0 h post-dosing (unpretreated control)
[14] = MENADIONE 12.5 μM for 4 h, drug 6.25 μM for 16 h
[15] = NON-MENADIONE, 6.25 μM for 16 h

COc1cc2c(c(OC)c1OC)-c1c(cc3c(c1OC)OCO3)CC(C)C(C)C2 (racemic) [(±) Sch B, (±) Schisandrin B]
GSH Level (H9c2 cells [1]; [6]): 38.3 ± 1.16 nmol/mg protein
GSH Level (H9c2 cells [1]; NON-X/XO, 4 h post-dosing): 44.1 ± 3.60 nmol/mg protein
GSH Level (H9c2 cells [1]; NON-X/XO, 8 h post-dosing): 46.2 ± 1.90 nmol/mg protein
GSH Level (H9c2 cells [1]; NON-X/XO, 16 h post-dosing): 85.8 ± 2.57 nmol/mg protein
GSH Level, percent increase vs unpretreated control (0 h) (H9c2 cells [1]; NON-X/XO, 16 h post-dosing): (124%)
GSH Level (H9c2 cells [1]; NON-X/XO, 24 h post-dosing): 76.6 ± 0.88 nmol/mg protein
GSH Level (H9c2 cells [1]; NON-X/XO, 48 h post-dosing): 58.8 ± 6.54 nmol/mg protein
GSH Level (H9c2 cells [1]; [7]): 14.5 ± 1.06 nmol/mg protein
GSH Level (H9c2 cells [1]; [8]): 15.8 ± 0.49 nmol/mg protein
GSH Level (H9c2 cells [1]; [9]): 16.7 ± 1.32 nmol/mg protein
GSH Level (H9c2 cells [1]; [10]): 22.3 ± 0.15 nmol/mg protein
GSH Level, percent increase vs unpretreated control (0 h) (H9c2 cells [1]; [10]): (54%)
GSH Level (H9c2 cells [1]; [11]): 18.9 ± 0.50 nmol/mg protein
GSH Level (H9c2 cells [1]; [12]): 14.3 ± 1.04 nmol/mg protein
LDH Leakage (H9c2 cells [2]; [13]): 33.9 ± 0.93 U/L
LDH Leakage (H9c2 cells [2]; 4 h post-dosing): 28.7 ± 1.35 U/L
LDH Leakage (H9c2 cells [2]; 8 h post-dosing): 22.8 ± 0.45 U/L
LDH Leakage (H9c2 cells [2]; 16 h post-dosing): 15.8 ± 0.91 U/L
LDH Leakage, percent protection vs unpretreated control (0 h) (H9c2 cells [2]; 16 h post-dosing): (65%)
LDH Leakage (H9c2 cells [2]; 24 h post-dosing): 20.1 ± 0.76 U/L
LDH Leakage (H9c2 cells [2]; 48 h post-dosing): 29.2 ± 0.57 U/L
LDH (H9c2 cells [3]; [14]): 23.6 ± 0.56 U/ml
LDH, percent protection vs menadione control (H9c2 cells [3]; [14]): (43%)
LDH (H9c2 cells [3]; [15]): 14.6 ± 0.67 U/ml
GSH Level (H9c2 cells [4]; [14]): 28.9 ± 0.66 nmol/mg protein
GSH Level, percent increase vs menadione control (H9c2 cells [4]; [14]): (56%)
GSH Level (H9c2 cells [4]; [15]): 46.5 ± 2.58 nmol/mg protein
GSH Level, percent increase vs non-menadione control (H9c2 cells [4]; [15]): (34%)
Hsp 25 Level (Hsp25; [13]): 1413 ± 76 AU
Hsp 25 Level (Hsp25; 8 h post-dosing): 1512 ± 39 AU
Hsp 25 Level (Hsp25; 16 h post-dosing): 1611 ± 93 AU
Hsp 25 Level (Hsp25; 24 h post-dosing): 1728 ± 101 AU
Hsp 25 Level, percent increase vs unpretreated control (0 h) (Hsp25; 24 h post-dosing): (24%)
Hsp 25 Level (Hsp25; 48 h post-dosing): 1332 ± 77 AU
Hsp 70 Level (Hsp70; [13]): 434 ± 15.5 AU
Hsp 70 Level (Hsp70; 8 h post-dosing): 389 ± 24.7 AU
Hsp 70 Level (Hsp70; 16 h post-dosing): 652 ± 23.9 AU
Hsp 70 Level (Hsp70; 24 h post-dosing): 639 ± 23.4 AU
Hsp 70 Level, percent increase vs unpretreated control (0 h) (Hsp70; 24 h post-dosing): (47%)
Hsp 70 Level (Hsp70; 48 h post-dosing): 419 ± 15.4 AU

COc1cc2c(c(OC)c1OC)-c1c(cc3c(c1OC)OCO3)CC(C)C(C)C2 (single isomer, unassigned; (+)) [(+) Sch B, (+) Schisandrin B]
GSH Level (H9c2 cells [1]; [6]): 34.2 ± 2.41 nmol/mg protein
GSH Level (H9c2 cells [1]; NON-X/XO, 4 h post-dosing): 38.3 ± 1.48 nmol/mg protein
GSH Level (H9c2 cells [1]; NON-X/XO, 8 h post-dosing): 46.3 ± 0.85 nmol/mg protein
GSH Level (H9c2 cells [1]; NON-X/XO, 16 h post-dosing): 73.9 ± 1.38 nmol/mg protein
GSH Level, percent increase vs unpretreated control (0 h) (H9c2 cells [1]; NON-X/XO, 16 h post-dosing): (117%)
GSH Level (H9c2 cells [1]; NON-X/XO, 24 h post-dosing): 66.7 ± 1.83 nmol/mg protein
GSH Level (H9c2 cells [1]; NON-X/XO, 48 h post-dosing): 59.0 ± 2.94 nmol/mg protein
GSH Level (H9c2 cells [1]; [7]): 13.9 ± 1.68 nmol/mg protein
GSH Level (H9c2 cells [1]; [8]): 15.4 ± 0.55 nmol/mg protein
GSH Level (H9c2 cells [1]; [9]): 16.8 ± 0.85 nmol/mg protein
GSH Level (H9c2 cells [1]; [10]): 18.4 ± 0.33 nmol/mg protein
GSH Level, percent increase vs unpretreated control (0 h) (H9c2 cells [1]; [10]): (32%)
GSH Level (H9c2 cells [1]; [11]): 17.2 ± 0.36 nmol/mg protein
GSH Level (H9c2 cells [1]; [12]): 14.1 ± 0.53 nmol/mg protein
LDH Leakage (H9c2 cells [2]; [13]): 35.7 ± 0.24 U/L
LDH Leakage (H9c2 cells [2]; 4 h post-dosing): 31.3 ± 0.71 U/L
LDH Leakage (H9c2 cells [2]; 8 h post-dosing): 25.2 ± 0.45 U/L
LDH Leakage (H9c2 cells [2]; 16 h post-dosing): 19.4 ± 0.29 U/L
LDH Leakage, percent protection vs unpretreated control (0 h) (H9c2 cells [2]; 16 h post-dosing): (62%)
LDH Leakage (H9c2 cells [2]; 24 h post-dosing): 22.4 ± 1.07 U/L
LDH Leakage (H9c2 cells [2]; 48 h post-dosing): 33.5 ± 0.17 U/L
LDH (H9c2 cells [3]; [14]): 24.7 ± 0.56 U/ml
LDH, percent protection vs menadione control (H9c2 cells [3]; [14]): (30%)
LDH (H9c2 cells [3]; [15]): 13.5 ± 0.08 U/ml
GSH Level (H9c2 cells [4]; [14]): 24.5 ± 2.03 nmol/mg protein
GSH Level, percent increase vs menadione control (H9c2 cells [4]; [14]): (55%)
GSH Level (H9c2 cells [4]; [15]): 48.4 ± 0.60 nmol/mg protein
GSH Level, percent increase vs non-menadione control (H9c2 cells [4]; [15]): (41%)
Hsp 25 Level (Hsp25; [13]): 1722 ± 99 AU
Hsp 25 Level (Hsp25; 8 h post-dosing): 1832 ± 105 AU
Hsp 25 Level (Hsp25; 16 h post-dosing): 1498 ± 86 AU
Hsp 25 Level (Hsp25; 24 h post-dosing): 2168 ± 125 AU
Hsp 25 Level, percent increase vs unpretreated control (0 h) (Hsp25; 24 h post-dosing): (26%)
Hsp 25 Level (Hsp25; 48 h post-dosing): 1673 ± 97 AU
Hsp 70 Level (Hsp70; [13]): 465 ± 14.3 AU
Hsp 70 Level (Hsp70; 8 h post-dosing): 576 ± 20.3 AU
Hsp 70 Level (Hsp70; 16 h post-dosing): 657 ± 13.4 AU
Hsp 70 Level (Hsp70; 24 h post-dosing): 834 ± 48.1 AU
Hsp 70 Level, percent increase vs unpretreated control (0 h) (Hsp70; 24 h post-dosing): (79%)
Hsp 70 Level (Hsp70; 48 h post-dosing): 656 ± 37.8 AU
percentage of cell death (H9c2 cells [5]): 11%
